From US20170246130A1, “4-HYDROXYBENZOHYDARZIDE-A NEW CLASS OF ANGIOGENIC ENZYME THYMIDINE PHOSPHORYLASE INHIBITORS” (priority 2016, published 2017)
“Also recorded” adds a separate entry of the source. Read-outs that look alike come from different tables or passages of the source.

Tests used:
[1] = tested on: prostate cancer line (PC3); assay: MTT anti-proliferative assay, PC3 cells; type: cell-based; conditions: for IC50: read-out: IC50 ± SD (μM), PC3 Cell Line; for inhibition of the proliferation of PC3 cancer cells (in words): in comparison of doxorubucin
Experimental: (§1) Compounds found to be active in inhibiting thymidine phosphorylase were then subjected to MTT proliferation assay. Rapid proliferation is the property inherent to cancerous/tumor cells. This assay was carried out to study the effect of these compounds on proliferation of various cell lines. The cell lines which we targeted were mouse fibroblast cell line (3T3), and prostate cancer line (PC3).
(§2) Anti-proliferative activity of active compounds was evaluated by using the standard MTT (3-[4,5-dimethylthiazole-2-yl]-2,5-diphenyl-tetrazolium bromide) colorimetric assay in 96-well plate (Dimas et al., 1998).
(§3) It is a colorimetric assay that measures the reduction of MTT, by mitochondrial enzyme i.e. succinate dehydrogenase. The MTT enters into the mitochondria of cell, where it is reduced to an insoluble formazan salt (FIG. 8). The extent of MTT reduction was measured at 540 nm. As reduction of MTT can only occur in metabolically active cells, the level of activity is actually a measure of the viability of the cells (Vega-Avila and Pugsley, 2011).
(§4) Mouse fibroblast cell line 3T3 was cultured in DMEM, supplemented with 5% of FBS, 100 IU/mL of penicillin and 100 μg/mL of streptomycin, and kept at 37° C. in 5% CO2 incubator. For the preparation of cell culture, 100 μL/well of cell solution (5×10^4 cells/mL) was added into 96-well plate. The plate was incubated for overnight, and fresh medium was added after the removal of old medium. The test compounds were also added in different concentrations into the plate and plate was again incubated for 48 h. After the completion of this incubation period, 200 μL MTT (0.5 mg/mL) was added and plate was again incubated for 4 h, after this final incubation 100 μL of DMSO was added to each well. The level of MTT reduction to formazan was evaluated by change in absorbance at 540 nm using a micro plate reader (Spectra Max plus, Molecular Devices, CA, USA).

[2] = tested on: mouse fibroblast cell line (3T3); assay: MTT anti-proliferative assay, 3T3 cells; type: cell-based; conditions: for inhibition of the proliferation of 3T3 cells (in words): in comparison to cyclohexamide; for IC50 ± SD (μM), 3T3 Cell Line / IC50: 3T3 cells; for IC50: read-out: IC50 ± SD (μM), 3T3 Cell Line
Experimental: as §1, §2, §3, §4

[3] = biological target: T1, thymidine phosphorylase (E. coli) (Escherichia coli, UniProt P07650); assay: In-vitro thymidine phosphorylase inhibition assay (spectrophotometric); type: biochemical; conditions: recombinant E. coli TP, thymidine substrate, pH 7.0, 30° C., 290 nm; for IC50: read-out: IC50 (μM ± S.E.M.), thymidine phosphorylase inhibition
T1 construct: purchased Sigma Aldrich, USA; host or cells: Escherichia coli
T1 sequence (P07650 whole entry): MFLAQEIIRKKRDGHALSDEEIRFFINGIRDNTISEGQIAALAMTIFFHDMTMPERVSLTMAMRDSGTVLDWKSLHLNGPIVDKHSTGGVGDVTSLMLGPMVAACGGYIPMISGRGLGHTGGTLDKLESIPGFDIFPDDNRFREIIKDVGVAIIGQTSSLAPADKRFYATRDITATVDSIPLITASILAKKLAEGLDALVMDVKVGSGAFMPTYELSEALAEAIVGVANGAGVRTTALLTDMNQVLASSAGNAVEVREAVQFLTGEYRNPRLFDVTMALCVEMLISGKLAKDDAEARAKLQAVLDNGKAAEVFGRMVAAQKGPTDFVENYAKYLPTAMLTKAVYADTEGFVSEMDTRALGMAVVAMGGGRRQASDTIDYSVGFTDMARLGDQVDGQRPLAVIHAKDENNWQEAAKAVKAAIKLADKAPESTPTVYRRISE
Experimental: In vitro studies on thymidine phosphorylase were carried out in 96-well microtiter plate using Spectra Max-340 and Spectra Max-384 spectrophotometers (Molecular Devices, CA, USA). Deionized water used for buffer preparation was collected by Simplicity Water Purification System (Milipore).
Since human TP is not commercially available, we used commercially available recombinant E. coli TP (expressed in Escherichia coli) enzyme. Primary sequence of TP is mostly conserved throughout the evolution as mammalian TP share 39% sequence similarity with TP of E. coli. The mammalian enzyme also shared 65-70% similarity with the active site residues of E. coli TP enzyme (Bronckaers et al., 2009). Assay for thymidine phosphorylase inhibition was performed spectrophotometrically, following method of Bera et al. with some modifications (Bera et al., 2013).
The reaction catalyzed by thymidine phosphorylase involves reversible phosphorolysis of thymidine (FIG. 1), to thymine and 2-deoxyribose-1-phosphate (Bronckaers et al., 2009).
Reaction mixture contained 150 μL of potassium phosphate buffer (pH 7.0, 50 mM), 20 µL of enzyme (0.058 U/well) and 10 μL of test compound (0.5 mM in dimethylsulfoxide). The reaction mixture was incubated for 10 min at 30° C.
The enzyme inhibitory activities were calculated using the following formula:
Percent Inhibition=100−(O.D. of test/O.D. of control)×100
Where test is the enzyme activity with sample, and control is the enzyme activity without sample, and O.D. is optical density.
The IC50 of the compounds was calculated using EZ-Fit Enzyme Kinetic Program (Perrella Scientific Inc., Amhrest, U.S.A.).

| Compound | IC50 ± SD (μM), PC3 Cell Line ([1]; PC3 cells) | IC50 [3] | IC50 (μM ± S.E.M.), thymidine phosphorylase inhibition [3] | other results |
| --- | --- | --- | --- | --- |
| C/C(=N\NC(=O)c1ccc(O)cc1)c1cc(O)ccc1O [Compound 28, 4-Hydroxy-N′-[(E)-1-(2,5-dihydroxyphenyl)ethylidene]benzohydrazide] | Inactive | 183.4 ± 0.9 µM | – | inhibition of the proliferation of 3T3 cells (in words) [2]: significantly inhibit |
| O=C(N/N=C/c1c(O)cc(O)cc1O)c1ccc(O)cc1 [Compound 7, 4-Hydroxy-N′-[(E)-(2,4,6-trihydroxyphenyl)methylidene]benzohydrazide] | – | – | Inactive | – |
| COc1ccccc1/C=N/NC(=O)c1ccc(O)cc1 [Compound 9, 4-Hydroxy-N′-[(E)-(2-methoxyphenyl)methylidene]benzohydrazide] | Inactive | 183.7 ± 1.5 µM | – | IC50 ± SD (μM), 3T3 Cell Line ([2]; 48 h): Inactive |
| C/C(=N\NC(=O)c1ccc(O)cc1)c1ccc(O)cc1O [Compound 26, 4-Hydroxy-N′-[(E)-1-(2,4-dihydroxyphenyl)ethylidene]benzohydrazide] | – | – | Inactive | – |
| O=C(N/N=C/c1cccc(Cl)c1)c1ccc(O)cc1 [Compound 13, 4-Hydroxy-N′-[(E)-(3-chlorophenyl)methylidene]benzohydrazide] | Inactive | 160.3 ± 1 µM | – | IC50 ± SD (μM), 3T3 Cell Line ([2]; 48 h): Inactive |
| O=C(N/N=C/c1cccc(O)c1)c1ccc(O)cc1 [Compound 2, 4-Hydroxy-N′-[(E)-(3-hydroxyphenyl)methylidene]benzohydrazide] | Inactive | 180 ± 3 µM | – | IC50 ± SD (μM), 3T3 Cell Line ([2]; 48 h): Inactive |
| O=C(N/N=C/c1cc(O)c(O)cc1O)c1ccc(O)cc1 [Compound 6, 4-Hydroxy-N′-[(E)-(2,4,5-trihydroxyphenyl)methylidene]benzohydrazide] | Inactive | 208 ± 0.9 µM | – | inhibition of the proliferation of 3T3 cells (in words) [2]: significantly inhibit |
| CCOc1cccc(/C=N/NC(=O)c2ccc(O)cc2)c1O [Compound 21, 4-Hydroxy-N′-[(E)-(3-ethoxy-2-hydroxyphenyl)methylidene]benzohydrazide] | – | 190.3 ± 0.4 µM | – | IC50 ([1]; Homo sapiens, PC-3, PC3 cells): 6.54 ± 0.278 µM; inhibition of the proliferation of PC3 cancer cells (in words) [1]: significantly inhibit; inhibition of the proliferation of 3T3 cells (in words) [2]: significantly inhibit |
| C[C@@H]1C[C@@H]([C@H](O)CC2CC(=O)NC(=O)C2)C(=O)[C@@H](C)C1 [Cyclohexamide, reference compound] | – | – | – | IC50 ([2]; 48 h): 0.26 ± 0.1 µM |
| O=C(N/N=C/c1cc(Cl)ccc1O)c1ccc(O)cc1 [Compound 23, 4-Hydroxy-N′-[(E)-(5-chloro-2-hydroxyphenyl)methylidene]benzohydrazide] | – | – | Inactive | – |
| C/C(=N\NC(=O)c1ccc(O)cc1)c1ccccc1O [Compound 25, 4-Hydroxy-N′-[(E)-1-(2-Hydroxyphenyl)ethylidene]benzohydrazide] | – | – | Inactive | – |
| COc1ccc(/C=N/NC(=O)c2ccc(O)cc2)cc1OC [Compound 11, 4-Hydroxy-N′-[(E)-(3,4-dimethoxyphenyl)methylidene]benzohydrazide] | Inactive | 204 ± 3 µM | – | IC50 ± SD (μM), 3T3 Cell Line ([2]; 48 h): Inactive |
| COc1ccc(/C=N/NC(=O)c2ccc(O)cc2)cc1 [Compound 10, 4-Hydroxy-N′-[(E)-(4-methoxyphenyl)methylidene]benzohydrazide] | Inactive | 186 ± 2 µM | – | IC50 ± SD (μM), 3T3 Cell Line ([2]; 48 h): Inactive |
| CSc1ccc(/C=N/NC(=O)c2ccc(O)cc2)cc1 [Compound 18] | – | – | unable to inhibit the enzyme; also recorded: Inactive | – |
| O=C(N/N=C/c1ccc(O)c(O)c1O)c1ccc(O)cc1 [Compound 8, 4-Hydroxy-N′-[(E)-(2,3,4-trihydroxyphenyl)methylidene]benzohydrazide] | – | – | Inactive | – |
| Cc1ccccc1/C=N/NC(=O)c1ccc(O)cc1 [Compound 16, 4-Hydroxy-N′-[(E)-(2-methylphenyl)methylidene]benzohydrazide] | Inactive | 177.2 ± 0.5 µM | – | IC50 ± SD (μM), 3T3 Cell Line ([2]; 48 h): Inactive |
| O=C(N/N=C/c1ccc(O)cc1)c1ccc(O)cc1 [Compound 3, 4-Hydroxy-N′-[(E)-(4-hydroxyphenyl)methylidene]benzohydrazide] | Inactive | 199.4 ± 0.4 µM | – | IC50 ± SD (μM), 3T3 Cell Line ([2]; 48 h): Inactive |
| O=C(N/N=C/c1ccccc1O)c1ccc(O)cc1 [Compound 1, 4-Hydroxy-N′-[(E)-(2-hydroxyphenyl)methylidene]benzohydrazide] | – | 189.1 ± 0.1 µM | – | IC50 ([1]; Homo sapiens, PC-3, PC3 cells): 7.58 ± 0.462 µM; inhibition of the proliferation of PC3 cancer cells (in words) [1]: significantly inhibit; inhibition of the proliferation of 3T3 cells (in words) [2]: significantly inhibit |
| COc1cccc2c1C(=O)c1c(O)c3c(c(O)c1C2=O)C[C@@](O)(C(=O)CO)C[C@@H]3O[C@H]1C[C@H](N)[C@H](O)[C@H](C)O1 [Doxorubucin, reference compound] | – | – | – | IC50 ([1]; PC3 cells): 0.91 ± 0.1 µM |
| COc1cccc(/C(C)=N/NC(=O)c2ccc(O)cc2)c1O [Compound 29, 4-Hydroxy-N′-[(E)-1-(2-hydroxy-3-methoxyphenyl)ethylidene]benzohydrazide] | – | 174.2 ± 1 µM | – | IC50 ([1]; Homo sapiens, PC-3, PC3 cells): 8.48 ± 0.592 µM; inhibition of the proliferation of PC3 cancer cells (in words) [1]: significantly inhibit; IC50 ([2]; Mus musculus, NIH3T3, 48 h): 18.6 ± 0.6 µM; inhibition of the proliferation of 3T3 cells (in words) [2]: significantly inhibit |
| O=C(N/N=C/c1ccc(Cl)cc1Cl)c1ccc(O)cc1 [Compound 15, 4-Hydroxy-N′-[(E)-(2,4-dichlorophenyl)methylidene]benzohydrazide] | – | – | Inactive | – |
| O=C(N/N=C/c1cccc(O)c1O)c1ccc(O)cc1 [Compound 4, 4-Hydroxy-N′-[(E)-(2,3-dihydroxyphenyl)methylidene]benzohydrazide] | – | 170.6 ± 0.5 µM | – | IC50 ([1]; Homo sapiens, PC-3, PC3 cells): 7.61 ± 0.49 µM; inhibition of the proliferation of PC3 cancer cells (in words) [1]: significantly inhibit; inhibition of the proliferation of 3T3 cells (in words) [2]: significantly inhibit |
| CN(C)c1ccc(/C=N/NC(=O)c2ccc(O)cc2)cc1 [Compound 17, 4-Hydroxy-N′-[(E)-[4-dimethylaminophenyl]methylidene]benzohydrazide] | – | – | unable to inhibit the enzyme; also recorded: Inactive | – |
| O=C(N/N=C/c1cc(Br)ccc1O)c1ccc(O)cc1 [Compound 22, 4-Hydroxy-N′-[(E)-(5-bromo-2-hydroxyphenyl)methylidene]benzohydrazide] | – | – | Inactive | – |
| COc1ccc(O)c(/C=N/NC(=O)c2ccc(O)cc2)c1 [Compound 20, 4-Hydroxy-N′-[(E)-(2-hydroxy-5-methoxyphenyl)methylidene]benzohydrazide] | – | 172 ± 2.7 µM | – | IC50 ([1]; Homo sapiens, PC-3, PC3 cells): 10.5 ± 0.551 µM; inhibition of the proliferation of PC3 cancer cells (in words) [1]: significantly inhibit; inhibition of the proliferation of 3T3 cells (in words) [2]: significantly inhibit |
